Type in all cases: in vivo
In series [1] the test system is Beet Armyworm (Spodoptera exigua, LAPHEG). The experiment in a line: Bioassay on Beet Armyworm (BAW), 128-well diet tray assay. Conditions: 168 h, 50 μg/cm^2 on artificial diet, second instar larvae, five to seven days, 25° C., read-out: BAW % Control (or Mortality) rating. The gist of the method:
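Second instar larvae, one to five per well, placed on artificial diet treated with 50 μg/cm^2 compound (in 90:10 acetone-water) and dried; eight wells per compound. Held at 25° C, 14:10 light-dark, five to seven days. Percent mortality recorded per well and averaged.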

In series [2] the test system is Cabbage Looper (Trichoplusia ni, TRIPNI). The experiment in a line: Bioassay on Cabbage Looper (CL), 128-well diet tray assay. Conditions: 168 h, 50 μg/cm^2 on artificial diet, second instar larvae, five to seven days, 25° C., read-out: CL % Control (or Mortality) rating. The gist of the method:
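Diet-tray test with one to five second-instar larvae per well on artificial diet treated with 50 μg/cm^2 compound (in 90:10 acetone-water), dried, eight wells per molecule. Held 25 °C, 14:10 light-dark for five to seven days; percent mortality averaged over the eight wells.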

The test system of series [3] is Green Peach Aphid (Myzus persicae, MYZUPE). As to the kind of experiment: Bioassay on Green Peach Aphid (GPA), foliar spray on cabbage seedlings. The settings on record: 72 h, 200 ppm foliar spray on cabbage seedlings, three days, Abbott corrected % control, read-out: GPA % Control (or Mortality) rating. As for the experimental part: Example B: Bioassays on Green Peach Aphid (Myzus persicae, MYZUPE) (“GPA”)
Certain molecules disclosed in this document were tested against GPA using procedures described in the following example. In the reporting of the results, the “GPA Rating Table” was used (See Table Section).
Cabbage seedlings grown in 3-inch pots, with 2-3 small (3-5 cm) true leaves, were used as test substrate. The seedlings were infested with 20-50 GPA (wingless adult and nymph stages) one day prior to chemical application. Four pots with individual seedlings were used for each treatment. Test molecules (2 mg) were dissolved in 2 mL of acetone/methanol (1:1) solvent, forming stock solutions of 1000 ppm test molecule. The stock solutions were diluted 5× with 0.025% Tween 20 in water to obtain the solution at 200 ppm test molecule. A hand-held aspirator-type sprayer was used for spraying a solution to both sides of […] leaves until runoff. Reference plants (solvent check) were sprayed with the diluent only containing 20% by volume of acetone/methanol (1:1) solvent. Treated plants were held in a holding room for three days at approximately 25° C. and ambient relative humidity (RH) prior to grading. Evaluation was conducted by counting the number of live aphids per plant under a microscope. Percent Control was measured by using Abbott's correction formula (W. S. Abbott, “A Method of Computing the Effectiveness of an Insecticide” J. Econ. Entomol. 18 (1925), pp. 265-267) as follows. Corrected % Control=100*(X−Y)/X • where • X=No. of live aphids on solvent check plants and • Y=No. of live aphids on treated plants
The results are indicated in the table entitled “Table ABC: Biological Results” (See Table Section).

In series [4] the test system is Yellow Fever Mosquito (Aedes aegypti, AEDSAE). The experiment in a line: Bioassay on Yellow Fever Mosquito (YFM) larvae, 96-well plate. Conditions: about 1 day-old larvae, 4000 ppm DMSO master plate diluted, graded after 3 days. The gist of the method:
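Compounds from 4000 ppm DMSO master stocks, diluted in 90:10 water:acetone, dispensed into wells and infested with about 1-day-old Aedes aegypti larvae in liver-powder water. Six replicate plates, covered and held at room temperature for 3 days, then each well scored for mortality.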

The structures appear in SMILES notation.

Usually mortality stands for the percentage killed. Take `COc1ccccc1-n1nccc1NC(=O)Nc1ccc(-c2ncn(-c3ccc(OC(F)(F)C(F)(F)F)cc3)n2)cc1` [F19, 1-(1-(2-Methoxyphenyl)-1H-pyrazol-5-yl)-3-(4-(1-(4-(perfluoroethoxy)phenyl)-1H-1,2,4-triazol-3-yl)phenyl)urea]: the mortality at 50 µg/cm2 in series [1] and in series [2] was 50 to 100% each time. In addition, the mortality at 200 ppm in series [3] lay in the range of 0 to 80%. Besides, in series [4], the “YFM % Control (or Mortality) rating” value is listed as “A (80-100)”.

The record behind these values is patent publication US10212936B2, “Molecules having pesticidal utility, and intermediates, compositions, and processes, related thereto” (priority 2014, dated 2019).
